Data: patent publication US20230138395A1, “PHARMACEUTICAL COMPOSITIONS OF A THERAPEUTIC POLYENE MACROLIDE AND METHODS OF THEIR USE” (priority 2020, published 2023)
Values after ≈ are worked out from the molar mass of the structure shown. Values joined by “and” are separate entries in the source; they are usually repeats but may differ in a detail not shown here. Equal values may be shown once.

Assays:
C. glabrata strains [1] = assay: MFC determination; format: cell-based; design: MFC: unit not given beside the values
Penicillium strains = assay: MIC testing (CLSI M38-A2); format: cell-based, Penicillium spp.; details: Penicillium
C. albicans SC5314 = assay: In vitro activity (MFC) against the infecting strain, Example 18; format: cell-based, Candida albicans; details: Candida albicans, read-out: MFC
[2] = system: individual Aspergillus spp. (Table 14, species not named); assay: MFC determination, Table 14; format: cell-based; details: Aspergillus sp. of Table 14
Cr. neoformans strains = assay: MIC testing (CLSI M27-A3, YNB, 72 h); format: cell-based, Cryptococcus neoformans
Candida albicans = assay: MFC determination; format: cell-based
[3] = system: Blastomyces dermatitidis, Coccidioides immitis, and Histoplasma capsulatum strains; format: cell-based; details: dimorphic fungal isolates; in µg/mL
[4] = system: Fusarium strains (Table 18); assay: MFC determination, Table 18; format: cell-based, Fusarium spp.
[5] = system: individual Aspergillus spp. (Table 15, species not named); assay: MIC testing (CLSI M38-A2), Table 15; format: cell-based; details: Aspergillus sp. of Table 15, caspofungin read as MEC
[6] = system: Fusarium strains (Table 18); assay: MIC testing (CLSI M38-A2), Table 18; format: cell-based, Fusarium spp.
C. tropicalis [7] = assay: MIC testing (CLSI M27-A3); format: cell-based
C. glabrata strains [8] = assay: MIC testing (CLSI M27-A3); format: cell-based; design: MIC: unit not given beside the values
C. tropicalis [9] = assay: MFC determination; format: cell-based; details: C. tropicalis
[10] = system: individual Aspergillus spp. (Table 14, species not named); assay: MIC testing (CLSI M38-A2), Table 14; format: cell-based; details: Aspergillus sp. of Table 14, caspofungin read as MEC
[11] = system: individual Aspergillus spp. (Table 13, species not given); assay: MIC testing (CLSI M38-A2), Table 13; format: cell-based; details: Aspergillus sp. of Table 13, caspofungin read as MEC
[12] = individual C. glabrata strain with elevated MICs to non-polyene comparators (Table 22), listed as Cas

Compound: CC[C@H](C)C[C@H](C)CCCCCCCCC(=O)N[C@H]1C[C@@H](O)[C@@H](NCCN)NC(=O)[C@@H]2[C@@H](O)CCN2C(=O)[C@H]([C@H](O)CCN)NC(=O)[C@H]([C@H](O)[C@@H](O)c2ccc(O)cc2)NC(=O)[C@@H]2C[C@@H](O)CN2C(=O)[C@H]([C@@H](C)O)NC1=O [Caspofungin, caspofungin]
- MFC50 (C. glabrata strains [1]; C. glabrata, kills 50% of strains): 1 µg/mL (≈ 0.915 µM)
- MFC90 (C. glabrata strains [1]; C. glabrata, kills 90% of strains): 32 µg/mL (≈ 29.3 µM)
- MFC (C. glabrata strains [1]; [12]): 32 (3×) and 16 and >32
- MIC50 (Penicillium strains; inhibits 50% of strains): 4 µg/mL (≈ 3.66 µM)
- MIC90 (Penicillium strains; inhibits 90% of strains): 32 µg/mL (≈ 29.3 µM)
- MFC (C. albicans SC5314): 32 µg/mL (≈ 29.3 µM)
- MFC50 ([2]; kills 50% of strains): > 32 µg/mL
- MFC90 ([2]; kills 90% of strains): > 32 µg/mL
- MIC Range (Cr. neoformans strains; Cr. neoformans strains, 72 h, in µg/mL): 1-16
- MIC50 (Cr. neoformans strains; Cr. neoformans, inhibits 50% of strains): 16 µg/mL (≈ 14.6 µM)
- MIC90 (Cr. neoformans strains; Cr. neoformans, inhibits 90% of strains): 16 µg/mL (≈ 14.6 µM)
- MFC Range (Candida albicans; Fluconazole-susceptible C. albicans n = 13, in µg/mL): 0.5-32
- MFC50 (Candida albicans; Fluconazole-susceptible C. albicans n = 13, kills 50% of strains): 0.25 µg/mL (≈ 0.229 µM)
- MFC90 (Candida albicans; Fluconazole-susceptible C. albicans n = 13, kills 90% of strains): 2 µg/mL (≈ 1.83 µM)
- MFC (Candida albicans; individual C. albicans strain with elevated MICs to non-polyene comparators (Table 22), listed as Cas): >32 (2×) and 32
- MIC Range [3]: 0.03-0.5
- MFC Range [4]: > 32 µg/mL
- MFC50 ([4]; kills 50% of strains): > 32 µg/mL
- MFC90 ([4]; kills 90% of strains): > 32 µg/mL
- MIC Range ([5]; in µg/mL): 0.25-1
- MIC50 ([5]; inhibits 50% of strains): 0.25 µg/mL (≈ 0.229 µM)
- MIC90 ([5]; inhibits 90% of strains): 0.5 µg/mL (≈ 0.457 µM)
- MIC50 ([6]; inhibits 50% of strains): > 32 µg/mL
- MIC90 ([6]; inhibits 90% of strains): > 32 µg/mL
- MIC Range (C. tropicalis [7]; C. tropicalis strains, in µg/mL): 0.06-2
- MIC50 (C. tropicalis [7]; C. tropicalis, inhibits 50% of strains): 0.25 µg/mL (≈ 0.229 µM)
- MIC90 (C. tropicalis [7]; C. tropicalis, inhibits 90% of strains): 0.5 µg/mL (≈ 0.457 µM)
- MIC Range (C. glabrata strains [8]; C. glabrata strains, in µg/mL): 0.25-8
- MIC50 (C. glabrata strains [8]; C. glabrata, inhibits 50% of strains): 0.5 µg/mL (≈ 0.457 µM)
- MIC90 (C. glabrata strains [8]; C. glabrata, inhibits 90% of strains): 2 µg/mL (≈ 1.83 µM)
- MIC (C. glabrata strains [8]; [12]): 2 (2×) and 1 and 4 and 8
- MFC50 (C. tropicalis [9]; kills 50% of strains): 32 µg/mL (≈ 29.3 µM)
- MFC90 (C. tropicalis [9]; kills 90% of strains): > 32 µg/mL
- MIC Range ([10]; in µg/mL): 0.125-2
- MIC50 ([10]; inhibits 50% of strains): 0.125 µg/mL (≈ 0.114 µM)
- MIC90 ([10]; inhibits 90% of strains): 0.25 µg/mL (≈ 0.229 µM)
- MIC Range ([11]; in µg/mL): 0.25-1
- MIC50 ([11]; inhibits 50% of strains): 0.25 µg/mL (≈ 0.229 µM)
- MIC90 ([11]; inhibits 90% of strains): 0.5 µg/mL (≈ 0.457 µM)
